Measured values reported in US11299492B2, “JAK kinase inhibitor compounds for treatment of respiratory disease” (THERAVANCE BIOPHARMA R&D IP, LLC, priority 2015, dated 2022).

Tests used:
[1] = test system: IL-13 induced STAT6 phosphorylation in BEAS-2B human lung epithelial cells; experiment: AlphaScreen JAK1 cellular potency assay (BEAS-2B); type: cell-based; settings: for BEAS-2B pIC50: IL-13 induced STAT6 phosphorylation, BEAS-2B cells; for fold less potent than the corresponding compound of the invention in the BEAS-2B cellular assay: C-1 vs Ex 1, C-2 vs Ex 7, C-3 vs Ex 13, C-4 vs Ex 6
Protocol: The AlphaScreen JAK1 cellular potency assay was carried out by measuring interleukin-13 (IL-13, R&D Systems) induced STAT6 phosphorylation in BEAS-2B human lung epithelial cells (ATCC). The anti-STAT6 antibody (Cell Signaling Technologies) was conjugated to AlphaScreen acceptor beads (Perkin Elmer), while the anti-pSTAT6 (pTyr641) antibody (Cell Signaling Technologies) was biotinylated using EZ-Link Sulfo-NHS-Biotin (Thermo Scientific).
BEAS-2B cells were grown at 37° C. in a 5% CO2 humidified incubator in 50% DMEM/50% F-12 medium (Life Technologies) supplemented with 10% FBS (Hyclone), 100 U/mL penicillin, 100 μg/mL streptomycin (Life Technologies), and 2 mM GlutaMAX (Life Technologies). On day 1 of the assay, cells were seeded at a 7,500 cells/well density in white poly-D-lysine-coated 384-well plates (Corning) with 25 μL medium, and were allowed to adhere overnight in the incubator. On day 2 of the assay, the medium was removed and replaced with 12 L of assay buffer (Hank's Balanced Salt Solution/HBSS, 25 mM HEPES, and 1 mg/ml bovine serum albumin/BSA) containing dose-responses of test compounds. Compounds were serially diluted in DMSO and then diluted another 1000-fold in media to bring the final DMSO concentration to 0.1%. Cells were incubated with test compounds at 37° C. for 1 h, and followed by the addition of 12 μl of pre-warmed IL-13 (80 ng/ml in assay buffer) for stimulation. After incubating at 37° C. for 30 min, the assay buffer (containing compound and IL-13) was removed, and 10 μl of cell lysis buffer (25 mM HEPES, 0.1% SDS, 1% NP-40, 5 mM MgCl2, 1.3 mM EDTA, 1 mM EGTA, and supplement with Complete Ultra mini protease inhibitors and PhosSTOP from Roche Diagnostics). The plates were shaken at ambient temperature for 30 min before the addition of detection reagents. A mixture of biotin-anti-pSTAT6 and anti-STAT6 conjugated acceptor beads was added first and incubated at ambient temperature for 2 h, followed by the addition of streptavidin conjugated donor beads (Perkin Elmer). After a minimum of 2 h incubation, the assay plates were read on the EnVision plate reader.
Results were expressed as the negative logarithm of the IC50 value, pIC50.

[2] = test system: IL-13 induced pSTAT6 induction in lung tissue; experiment: Murine model of IL-13 induced pSTAT6 induction in lung tissue; type: in vivo; settings: mouse lung; for pSTAT6 inhibition in the pharmacodynamic assay: IL-13 challenge; for lung concentration smaller than that of the corresponding compound of the invention by a factor: pharmacodynamic assay, C-1 vs Ex 1, C-2 vs Ex 7, C-3 vs Ex 13, C-4 vs Ex 6
Protocol: I1-13 is an important cytokine underlying the pathophysiology of asthma (Kudlacz et al. Eur. J Pharmacol, 2008, 582, 154-161). IL-13 binds to cell surface receptors activating members of the Janus family of kinases (JAK) which then phosphorylate STAT6 and subsequently activates further transcription pathways. In the described model, a dose of IL-13 was delivered locally into the lungs of mice to induce the phosphorylation of STAT6 (pSTAT6) which is then measured as the endpoint.
Adult balb/c mice from Harlan were used in the assay. On the day of study, animals were lightly anesthetized with isoflurane and administered either vehicle or test compound (0.5 mg/mL, 50 μL total volume over several breaths) via oral aspiration. Animals were placed in lateral recumbency post dose and monitored for full recovery from anesthesia before being returned to their home cage. Four hours later, animals were once again briefly anesthetized and challenged with either vehicle or IL-13 ([…] total dose delivered, 50 μL total volume) via oral aspiration before being monitored for recovery from anesthesia and returned to their home cage. One hour after vehicle or IL-13 administration, lungs were collected for both pSTAT6 detection using an anti-pSTAT6 ELISA (rabbit mAb capture/coating antibody; mouse mAb detection/report antibody: anti-pSTAT6-pY641; secondary antibody: anti-mouse IgG-HRP) and analyzed for total drug concentration as described above in Assay 4.
Selected compounds of the invention were tested in the assay. Activity in the model is evidenced by a decrease in the level of pSTAT6 present in the lungs of treated animals at 5 hours compared to the vehicle treated, IL-13 challenged control animals. The difference between the control animals which were vehicle-treated, IL-13 challenged and the control animals which were vehicle-treated, vehicle challenged dictated the 0% and 100% inhibitory effect, respectively, in any given experiment.

[3] = Pharmacokinetics in plasma and lung in mouse; type: in vivo; settings: oral aspiration, lung AUC (μg hr/g) / plasma AUC (μg hr/mL)
Protocol: Plasma and lung levels of test compounds and ratios thereof were determined in the following manner. BALB/c mice from Charles River Laboratories were used in the assay. Test compounds were individually formulated in 20% propylene glycol in pH 4 citrate buffer at a concentration of 0.2 mg/mL and 50 uL of the dosing solution was introduced into the trachea of a mouse by oral aspiration. At various time points (typically 0.167, 2, 6, 24 hr) post dosing, blood samples were removed via cardiac puncture and intact lungs were excised from the mice. Blood samples were centrifuged (Eppendorf centrifuge, 5804R) for 4 minutes at approximately 12,000 rpm at 4° C. to collect plasma. Lungs were padded dry, weighed, and homogenized at a dilution of 1:3 in sterile water. Plasma and lung levels of test compound were determined by LC-MS analysis against analytical standards constructed into a standard curve in the test matrix. A lung to plasma ratio was determined as the ratio of the lung AUC in μg hr/g to the plasma AUC in μg hr/mL, where AUC is conventionally defined as the area under the curve of test compound concentration vs. time.

[4] = Dynamic moisture sorption assessment; type: physicochemical
Protocol: Dynamic moisture sorption (DMS) measurement was performed using a VTI atmospheric microbalance, SGA-100 system (VTI Corp., Hialeah, Fla. 33016). A weighed sample was used and the humidity was lowest possible value (close to 0% RH) at the start of the analysis. The DMS analysis consisted of an initial drying step (˜0% RH) for 120 minutes, followed by two cycles of sorption and desorption with a scan rate of 5% RH/step over the humidity range of 5% RH to 90% RH. The DMS run was performed isothermally at 25° C.

Q: For `CCc1cc(O)c(F)cc1-c1ccc2c(-c3nc4c([nH]3)CCN(C3CN(CCOC)C3)C4)n[nH]c2c1` [Example 1-6], which “BEAS-2B pIC50” value [1] is on record?
A: A (A represents a pIC50 value≥8 (IC50≤10 nM))

Q: Which “BEAS-2B pIC50” value [1] does the source give for `CCc1cc(O)c(F)cc1-c1ccc2c(-c3nc4c([nH]3)CCN(C3CN(CCC#N)C3)C4)n[nH]c2c1` [Example 1-8] here?
A: A (A represents a pIC50 value≥8 (IC50≤10 nM))

Q: Which “pSTAT6 inhibition in the pharmacodynamic assay” value [2] does the source give for `CCc1cc(O)c(F)cc1-c1ccc2c(-c3nc4c([nH]3)CCN(C3CN(C5CCS(=O)(=O)C5)C3)C4)n[nH]c2c1` (stereo not drawn) [Example 1-15] here?
A: exceptions

Q: For `CCc1cc(O)c(F)cc1-c1ccc2c(-c3nc4c([nH]3)CCN(CCNC3(C#N)CC3)C4)n[nH]c2c1` [Example 3-1], which “pSTAT6 inhibition in the pharmacodynamic assay” value [2] is on record?
A: exceptions

Q: For `CCc1cc(O)c(F)cc1-c1ccc2c(-c3nc4c([nH]3)CCN(CCNC3CC(OC)C3)C4)n[nH]c2c1` (stereo not drawn) [Example 3-30], which “BEAS-2B pIC50” value [1] is on record?
A: A (A represents a pIC50 value≥8 (IC50≤10 nM))

Q: Which “Lung to Plasma ratio Assay 4” value [3] does the source give for `CCc1cc(O)c(F)cc1-c1ccc2c(-c3nc4c([nH]3)CCN(CCN(C)CC(C)C)C4)n[nH]c2c1` [Example 3-33] here?
A: A (A denotes a ratio>100)

Q: Which “Lung to Plasma ratio Assay 4” value [3] does the source give for `CCc1cc(O)c(F)cc1-c1ccc2c(-c3nc4c([nH]3)CCN(CCNC3CC(OC)C3)C4)n[nH]c2c1` (stereo not drawn) [Example 8, 5-Ethyl-2-fluoro-4-(3-(5-(2-((3-methoxycyclobutyl)amino)ethyl)-4,5,6,7-tetrahydro-1H-imidazo[4,5-c]pyridin-2-yl)-1H-indazol-6-yl)phenol] here?
A: A (A denotes a ratio>100)

Q: For `CCc1cc(O)c(F)cc1-c1ccc2c(-c3nc4c([nH]3)CCN(C[C@@H]3CCCN3C)C4)n[nH]c2c1` [Example 11, (S)-5-ethyl-2-fluoro-4-(3-(5-((1-methylpyrrolidin-2-yl)methyl)-4,5,6,7-tetrahydro-1H-imidazo[4,5-c]pyridin-2-yl)-1H-indazol-6-yl)phenol], which “Lung to Plasma ratio Assay 4” value [3] is on record?
A: A (A denotes a ratio>100)

Q: For `CCc1cc(O)c(F)cc1-c1ccc2c(-c3nc4c([nH]3)CCN(C[C@H]3COCCN3)C4)n[nH]c2c1` [Example 13, (S)-5-Ethyl-2-fluoro-4-(3-(5-(morpholin-3-ylmethyl)-4,5,6,7-tetrahydro-1H-imidazo[4,5-c]pyridin-2-yl)-1H-indazol-6-yl)phenol], which “Lung to Plasma ratio Assay 4” value [3] is on record?
A: A (A denotes a ratio>100)

Q: With `CCc1cc(O)c(F)cc1-c1ccc2c(-c3nc4c([nH]3)CCN(C[C@@H]3COCCN3)C4)n[nH]c2c1` [Example 14, (R)-5-Ethyl-2-fluoro-4-(3-(5-(morpholin-3-ylmethyl)-4,5,6,7-tetrahydro-1H-imidazo[4,5-c]pyridin-2-yl)-1H-indazol-6-yl)phenol] as the compound, how does the “Lung to Plasma ratio Assay 4” value [3] read?
A: A (A denotes a ratio>100)

Q: With `CCc1cc(O)c(F)cc1-c1ccc2c(-c3nc4c([nH]3)CCN(CC3CNC3)C4)n[nH]c2c1` [Example 14-7] as the compound, how does the “Lung to Plasma ratio Assay 4” value [3] read?
A: A (A denotes a ratio>100)

Q: For `CCc1cc(O)c(F)cc1-c1ccc2c(-c3nc4c([nH]3)CCN(CCN3CCC[C@@H]3C)C4)n[nH]c2c1` [Example 15, (S)-5-ethyl-2-fluoro-4-(3-(5-(2-(2-methylpyrrolidin-1-yl)ethyl)-4,5,6,7-tetrahydro-1H-imidazo[4,5-c]pyridin-2-yl)-1H-indazol-6-yl)phenol], which “Lung to Plasma ratio Assay 4” value [3] is on record?
A: A (A denotes a ratio>100)

Q: Which “lung concentration smaller than that of the corresponding compound of the invention by a factor” value [2] does the source give for `CCc1cc(O)c(F)cc1-c1ccc2c(-c3nc4c([nH]3)CCN(C3CC(C)C3)C4)n[nH]c2c1` (stereo not drawn) [Example C-1, 5-Ethyl-2-fluoro-4-(3-(5-(3-methylcyclobutyl)-4,5,6,7-tetrahydro-1H-imidazo[4,5-c]pyridin-2-yl)-1H-indazol-6-yl)phenol] here?
A: 36

Q: What does the source list for `CCc1cc(O)c(F)cc1-c1ccc2c(-c3nc4c([nH]3)CCN(CCC(C)C)C4)n[nH]c2c1` [Example C-2, reference compound]?
A: lung concentration smaller than that of the corresponding compound of the invention by a factor [2]: 52; fold less potent than the corresponding compound of the invention in the BEAS-2B cellular assay [1]: 6 fold

Q: Which “lung concentration smaller than that of the corresponding compound of the invention by a factor” value [2] does the source give for `CCc1cc(O)c(F)cc1-c1ccc2c(-c3nc4c([nH]3)CCN(CC3CCCOC3)C4)n[nH]c2c1` (stereo not drawn) [Example C-3, reference compound] here?
A: 13

Q: What about the “fold less potent than the corresponding compound of the invention in the BEAS-2B cellular assay” value [1] of the same compound?
A: 3 fold

Q: Which results are given for `CCc1cc(O)c(F)cc1-c1ccc2c(-c3nc4c([nH]3)CCN(C3CCC(C)CC3)C4)n[nH]c2c1` (stereo not drawn) [Example C-4, reference compound]?
A: lung concentration smaller than that of the corresponding compound of the invention by a factor [2]: 23; fold less potent than the corresponding compound of the invention in the BEAS-2B cellular assay [1]: 6 fold

Q: Which results are given for `CCc1cc(O)c(F)cc1-c1ccc2c(-c3nc4c([nH]3)CCN(C3CCN(C)CC3)C4)n[nH]c2c1` [crystalline hydrate, Crystalline hydrate of 5-ethyl-2-fluoro-4-(3-(5-(1-methylpiperidin-4-yl)-4,5,6,7-tetrahydro-1H-imidazo[4,5-c]pyridin-2-yl)-1H-indazol-6-yl)phenol]?
A: weight gain ([4]; humidity range of 5% to 90% relative humidity, 25° C): less than 0.12%; hygroscopicity ([4]; two cycles of sorption and desorption, 5% to 90% RH): non-hygroscopic
